{"source": "patent US11690387B2", "about": "“Methods and related compositions for manufacturing food and feed” (priority 2017, dated 2023)", "key": {"[1]": {"system": "Drosophila melanogaster", "assay": "Larval mass assay: larval area on defined diet, axenic or mono-associated with one bacterium (Example 8)", "assay_type": "in vivo", "settings": "after 13 days, 10-15 larvae per replicate, FIG. 3", "source_text": "For the experimental setup to measure the larval growth rate, defined diet was used (Piper et al., 2014, Nature Methods). Defined diet eliminates the effects of batch to batch variation in the ingredients used for the cornmeal based diet. In addition, the defined diet allows for the exclusion of individual components to test their effects on fly development.\nTo test whether the presence of bacteria producing amino acids can increase the body mass of developing larvae when raised on defined diet, we produced larvae that are axenic, and mono-associated with a single strain of bacterium. For these assays, three different bacteria were used, Corynebacterium glutamicum—a strain that produces glutamate, Corynebacterium glutamicum—a strain that produces methionine, and E. coli.\nFirst, axenic embryos were generated. Fertilized embryos were collected from fruit flies over a 6 hour period on grape juice agar plates with yeast. To eliminate any bacterial contamination, the embryos were treated with 2% hypochlorite solution for five minutes and then washed thrice with sterile water. One volume of embryos was then suspended in 3 volumes of water.\nThe defined diet was aliquoted into vials and nine replicates were used for every condition being tested. […]\nAfter 13 days, 10-15 randomly chosen larvae from each replicate were sampled, and their areas were measured, as a proxy to their biomass and weight. […]"}, "[2]": {"system": "Drosophila melanogaster", "assay": "Development rate assay: time to adult emergence on diet seeded with Corynebacterium glutamicum (Example 8)", "assay_type": "in vivo", "settings": "diet seeded with 10^9 CFUs of bacteria vs axenic/sterile diet; adults counted every 12 hours", "protocol": "The media used to rear flies is cornmeal, molasses and yeast medium (11 g/l yeast, 54 g/l yellow cornmeal, 5 g/l agar, 66 ml/l molasses, and 4.8 ml/l propionic acid). All the components of the diet except propionic acid are heated together to 80° C. in deionized water with constant mixing for 30 minutes and let to cool to 60° C. Propionic acid is then mixed in and 50 ml of the diet is aliquoted into individual bottles and allowed to cool down and solidify. The flies are raised at 26° C., 16:8 hour light:dark cycle, at around 60% humidity.\nOn day one, 100 ul of a Corynebacterium glutamicum suspension in nutrient broth consisting of 10^9 colony forming units (CFUs) were added to five replicates of fly food. As controls, nutrient broth without the bacteria was added to five more bottles of fly food. Fertilized embryos collected from fruit flies were treated with 2% hypochlorite solution for five minutes and then washed with sterile water to remove any extracellular microbes from the embryos. 10 ul of the embryo suspension in water (one:three embryo:water suspension) was added to all the bacteria seeded and control fly food bottles. […] The time to adult emergence and the rate of emergence was measured in every replicate. From the time the first adult emerges from the pupa, the number of adult flies emerging was counted every 12 hours and rate of emergence was be computed."}, "[3]": {"system": "fungi", "settings": "cited from earlier work"}, "[4]": {"system": "target bacterial strains", "settings": "against its target bacterial strains; cited from earlier work"}}}
{"substance": "Corynebacterium glutamicum [C. glu-Met]", "values": [{"measurement": "larval body size (area of the larvae, proxy to biomass and weight)", "setting": "[1]", "value": "largest body size on average"}]}
{"substance": "Corynebacterium glutamicum [C. glutamicum Glu]", "values": [{"measurement": "time to reach adulthood from embryos", "setting": "[2]", "value": "reach adulthood faster than their bacteria free counterparts"}]}
{"substance": "botrycidin AJ1316", "values": [{"measurement": "antifungal activities", "setting": "[3]", "value": "have been shown to have antifungal activities"}]}
{"substance": "nisin", "values": [{"measurement": "concentration showing antimicrobial activity", "setting": "[4]", "value": "single-digit nanomolar concentration"}]}
{"substance": "alirin B1", "values": [{"measurement": "antifungal activities", "setting": "[3]", "value": "have been shown to have antifungal activities"}]}
